Assay results: patent US20240133877A1, “PRODUCTS AND METHODS FOR MONITORING ADHERENCE TO NUCLEOSIDE REVERSE TRANSCRIPTASE INHIBITOR THERAPY” (priority 2017, published 2024)
“And” between values parts separate entries of the source, which are not always exact repeats. Identical values can stand only once. Values belong to the compound of their own block, whether it stands above or below them.

Columns and labels:
pAb 313 = assay: Cross reactivity of compounds spiked in buffer with pAb 313; format: binding, rabbit; details: compound spiked in buffer
Experimental: (§1) To identify which compounds were causing cross reactivity, potentially cross-reactive compounds (compounds with similar chemical structure to TFV) were spiked in buffer and tested with the pAbs. We tested 11 compounds, and their percent cross reactivity was calculated for each of the substances in Table 3 to each antibody.

pAb 312 = assay: Cross reactivity of compounds spiked in buffer with pAb 312; format: binding, rabbit; details: compound spiked in buffer
Experimental: as §1

[1] = Urine and plasma TFV levels by LC-MS/MS in participants taking TAF; format: in vivo, human
Experimental: Blood and urine samples were collected from 3 cohorts of patients: (1) 10 HIV positive participants with suppressed virus on a TAF-based regimen, (2) 10 HIV- participants administered 1 dose of FTC/TAF followed by urine and plasma sampling for 7 days starting 1-3 hours post-dose, and (3) 10 HIV- participants administered 7 daily doses of FTC/TAF followed by urine and plasma sampling for 10 days starting 1-3 hours after the last dose. Samples were analyzed using liquid chromatography-tandem mass spectrometry (LC-MS/MS) with high sensitivity and specificity for TFV. Samples from cohort 2 were compared to a historical cohort administered one dose of FTC/TD F.

[2] = test system: anti-TFV monoclonal antibody-HRP conjugates; assay: Whole-blood TFV-DP ELISA with phosphatase; format: binding; details: for OD Value: replicates
Experimental: ELISA plates and reagents were equilibrated at room temperature. 50 μL of TFV-DP standard were plated onto a dilution plate in triplicate to generate a standard curve. TFV-DP standards were 250, 100, 50, 25, 10, 5, and 1 ng/mL, along with a blank. 50 μL of whole blood samples were added in duplicate or triplicate.
[…] 25 μL of conjugate solution containing anti-TFV monoclonal antibody-HRP conjugates was added to each well.
The dilution plate was covered and incubated at 25° C. for 30 minutes with shaking at 300-600 rpm. After incubation, the total volume of the dilution plate wells was transferred to an ELISA plate pre-coated with tenofovir-BSA conjugate (TFV-BSA). The ELISA plate was covered and incubated at 25° C. for 30 minutes with shaking at 300-600 rpm. The ELISA plate was washed with 350 μL per well of wash buffer for a total of 6 cycles, with a final aspirate.
100 μL of TMB substrate was added to each well. The ELISA plate was incubated in the dark at 25° C. for 30 minutes. 100 μL of stop solution was added to each well to quench the reactions. Absorbance was measured at 450 (primary) and 630 (reference) nm wavelengths within 15 minutes of quenching the reactions. OD was calculated by subtracting the reference absorbance from the primary absorbance. A standard curve was generated using a 4-parameter logistic regression or a 5-parameter logistic regression. The percent inhibition was calculated using the following formula: […]

[3] = test system: anti-TFV antibodies conjugated to colloidal gold; assay: Negative readout lateral flow assay, TFV-DP in PBS; format: binding
Excerpt: […] Samples were loaded onto negative readout lateral flow assays. Lateral flow assays had anti-TFV antibodies conjugated to colloidal gold at the conjugate pad and TFV derivates striped at the test line. Visual reads were made at 10- and 15-minute time points.

[4] = test system: anti-TFV antibodies conjugated to colloidal gold; assay: Negative readout lateral flow assay, TFV-DP in whole blood; format: binding; parameters: Visual Read Results / Test Line Visual Read Results: scale not given here; details: for TFV-DP conversion to TFV: phosphatase 30 minutes; for Visual Read Results: WB with phosphatase
Experimental: […] Samples were diluted by 1:10 or 1:2 and loaded onto negative readout lateral flow assays. Visual reads were made at 10- and 15-minute time points.
Samples were loaded onto negative readout lateral flow assays. Visual reads were made at 10- and 15-minute time points. Results are shown in FIGS. 11A and 11B and Table 10.

[5] = red blood cells and dried blood spots; cited from earlier work
[6] = HIV-positive participants on TAF-based regimen (Cohort 1)

Structure (SMILES): Nc1ncnc2c1ncn2[C@@H]1O[C@H](CO)[C@@H](O)[C@H]1O [Adenosine]
Cross Reactivity of 313 (vs TFV standard) (pAb 313): Reactive (0.1%) | Cross Reactivity of 312 (vs TFV standard) (pAb 312): None

Structure (SMILES): Nc1ccn(C[C@@H](CO)OCP(=O)(O)O)c(=O)n1 [Cidofovir Hydrate]
Cross Reactivity of 313 (vs TFV standard) (pAb 313): Reactive (5%) | Cross Reactivity of 312 (vs TFV standard) (pAb 312): None

Structure (SMILES): Nc1nc2c(ncn2[C@@H]2O[C@H](COP(=O)([O-])[O-])[C@@H](O)[C@H]2O)c(=O)[nH]1.[Na+].[Na+] [Guanosine 5′ Monophosphate Disodium]
Cross Reactivity of 313 (vs TFV standard) (pAb 313): None | Cross Reactivity of 312 (vs TFV standard) (pAb 312): None

Structure (SMILES): CNc1ncnc2c1ncn2[C@@H]1O[C@H](COP(=O)(O)O)[C@@H](O)[C@H]1O [N6 Methyladenosine 5′ Monophosphate]
Cross Reactivity of 313 (vs TFV standard) (pAb 313): None | Cross Reactivity of 312 (vs TFV standard) (pAb 312): Reactive (0.1%)

Structure (SMILES): CNc1ncnc2c1ncn2[C@@H]1O[C@H](CO)[C@@H](O)[C@H]1O [N6 Methyladenosine]
Cross Reactivity of 313 (vs TFV standard) (pAb 313): None | Cross Reactivity of 312 (vs TFV standard) (pAb 312): None

urine TFV concentration ([1]; 7 consecutive doses FTC/TAF, 1-3 hours after discontinuation of dosing): > 1000 ng/mL | urine TFV level ([1]; 7 consecutive doses FTC/TAF, up to 7 days post discontinuation, in 8 out of 10 participants): > 100 ng/mL | TFV concentration higher in urine than plasma ([1]; HIV-positive participants on TAF-based regimen): 2 logs | plasma TFV concentration [1, 6]: 10 ng/mL | urine TFV concentration [1, 6]: 1000 ng/mL | plasma TFV concentration ([1]; both HIV-negative cohorts (FTC/TAF), all time points): ≤ 10 ng/mL | concentration at 144 h ([1]; human, urine, oral, single dose FTC/TAF, for 6 days, in 8 of 10 participants, read-out: urine TFV concentration remaining): > 100 ng/mL | persistence of TFV in urine at detectable concentrations ([1]; patients taking FTC/TAF): at least 7 days | urine TFV concentrations after FTC/TAF versus historical cohort administered FTC/TDF ([1]; single dose): comparable | urine TFV concentration ([1]; single dose FTC/TAF, HIV- subjects, 1-3 hours post-dose): 100 to 1000 ng/mL
Structure (SMILES): C[C@H](Cn1cnc2c(N)ncnc21)OCP(=O)(O)O [TFV, tenofovir]

% Inhibition ([2]; No Phosphatase): 33.05% | OD Average ([2]; No Phosphatase): 1.0986 | OD Value ([2]; No Phosphatase): 1.088 and 1.2148 and 1.2340 and 1.1083 | % Inhibition ([2]; Phosphatase): 76.63% | OD Average ([2]; Phosphatase): 0.3835 | OD Value ([2]; Phosphatase): 0.3853 and 0.3923 and 0.3798 and 0.3766 | Visual Read Results (Enzyme Present) ([3]; 325 ng/mL, 10 minutes): 5 | Visual Read Results (No Enzyme Present) ([3]; 325 ng/mL, 10 minutes): 8 | Visual Read Results (Enzyme Present) ([3]; 325 ng/mL, 15 minutes): 5/6 | Visual Read Results (No Enzyme Present) ([3]; 325 ng/mL, 15 minutes): 8 | Visual Read Results (Enzyme Present) ([3]; 1300 ng/mL, 10 minutes): 3 | Visual Read Results (No Enzyme Present) ([3]; 1300 ng/mL, 10 minutes): 7 | Visual Read Results (Enzyme Present) ([3]; 1300 ng/mL, 15 minutes): 3 | Visual Read Results (No Enzyme Present) ([3]; 1300 ng/mL, 15 minutes): 7 | Visual Read Results (Enzyme Present) ([3]; 3250 ng/mL, 10 minutes): 0/1 | Visual Read Results (No Enzyme Present) ([3]; 3250 ng/mL, 10 minutes): 6 | Visual Read Results (Enzyme Present) ([3]; 3250 ng/mL, 15 minutes): 0/1 | Visual Read Results (No Enzyme Present) ([3]; 3250 ng/mL, 15 minutes): 6
Structure (SMILES): C[C@H](Cn1cnc2c(N)ncnc21)OCP(=O)(O)OP(=O)(O)OP(=O)(O)O [TFV-DP, tenofovir diphosphate]
TFV-DP conversion to TFV ([3]; phosphatase from sweet potato extract, 30 minutes): Conversion of TFV-DP to TFV was observed | TFV-DP conversion to TFV ([3]; without phosphatase treatment): No conversion of TFV-DP to TFV was observed | TFV-DP conversion to TFV ([4]; WB 975 and 325 ng/mL, diluted 1:10 or 1:2): Conversion of TFV-DP to TFV was observed | TFV-DP conversion to TFV ([4]; WB 975 and 325 ng/mL, no further dilution): Conversion of TFV-DP to TFV was observed | TFV-DP conversion to TFV ([4]; WB 1000-12000 ng/mL, diluted 1:10): Conversion of TFV-DP to TFV was observed | Test Line Visual Read Results ([4]; WB diluted 1:10, 1000 ng/ml, 10 minutes): 7 | Test Line Visual Read Results ([4]; WB diluted 1:10, 1000 ng/ml, 15 minutes): 7 | Test Line Visual Read Results ([4]; WB diluted 1:10, 2000 ng/ml, 10 minutes): 7 | Test Line Visual Read Results ([4]; WB diluted 1:10, 2000 ng/ml, 15 minutes): 7 | Test Line Visual Read Results ([4]; WB diluted 1:10, 3000 ng/ml, 10 minutes): 7 | Test Line Visual Read Results ([4]; WB diluted 1:10, 3000 ng/ml, 15 minutes): 7 | Test Line Visual Read Results ([4]; WB diluted 1:10, 3250 ng/ml, 10 minutes): 7 | Test Line Visual Read Results ([4]; WB diluted 1:10, 3250 ng/ml, 15 minutes): 7 | Test Line Visual Read Results ([4]; WB diluted 1:10, 4000 ng/ml, 10 minutes): 6 | Test Line Visual Read Results ([4]; WB diluted 1:10, 4000 ng/ml, 15 minutes): 6 | Test Line Visual Read Results ([4]; WB diluted 1:10, 5000 ng/ml, 10 minutes): 5 | Test Line Visual Read Results ([4]; WB diluted 1:10, 5000 ng/ml, 15 minutes): 5 | Test Line Visual Read Results ([4]; WB diluted 1:10, 6000 ng/ml, 10 minutes): 5 | Test Line Visual Read Results ([4]; WB diluted 1:10, 6000 ng/ml, 15 minutes): 5 | Test Line Visual Read Results ([4]; WB diluted 1:10, 7000 ng/ml, 10 minutes): 5 | Test Line Visual Read Results ([4]; WB diluted 1:10, 7000 ng/ml, 15 minutes): 5 | Test Line Visual Read Results ([4]; WB diluted 1:10, 8000 ng/ml, 10 minutes): 5 | Test Line Visual Read Results ([4]; WB diluted 1:10, 8000 ng/ml, 15 minutes): 5 | Test Line Visual Read Results ([4]; WB diluted 1:10, 9000 ng/ml, 10 minutes): 4 | Test Line Visual Read Results ([4]; WB diluted 1:10, 9000 ng/ml, 15 minutes): 4 | Test Line Visual Read Results ([4]; WB diluted 1:10, 9750 ng/ml, 10 minutes): 4 | Test Line Visual Read Results ([4]; WB diluted 1:10, 9750 ng/ml, 15 minutes): 4 | Test Line Visual Read Results ([4]; WB diluted 1:10, 10000 ng/ml, 10 minutes): 4 | Test Line Visual Read Results ([4]; WB diluted 1:10, 10000 ng/ml, 15 minutes): 4 | Test Line Visual Read Results ([4]; WB diluted 1:10, 11000 ng/ml, 10 minutes): 4 | Test Line Visual Read Results ([4]; WB diluted 1:10, 11000 ng/ml, 15 minutes): 4 | Test Line Visual Read Results ([4]; WB diluted 1:10, 12000 ng/ml, 10 minutes): 3 | Test Line Visual Read Results ([4]; WB diluted 1:10, 12000 ng/ml, 15 minutes): 3 | Visual Read Results ([4]; diluted 1:10 or 1:2, 325 ng/ml, 10 minutes): 6 | Visual Read Results ([4]; diluted 1:10 or 1:2, 325 ng/ml, 15 minutes): 6 | Visual Read Results ([4]; diluted 1:10 or 1:2, 975 ng/ml, 10 minutes): 4 | Visual Read Results ([4]; diluted 1:10 or 1:2, 975 ng/ml, 15 minutes): 4 | Visual Read Results ([4]; no further dilution (Table 10), 325 ng/ml, 10 minutes): 3/4 | Visual Read Results ([4]; no further dilution (Table 10), 325 ng/ml, 15 minutes): 3/4 | Visual Read Results ([4]; no further dilution (Table 10), 975 ng/ml, 10 minutes): 0 | Visual Read Results ([4]; no further dilution (Table 10), 975 ng/ml, 15 minutes): 0 | accumulation from the first dose to steady state [5]: 25 fold | half-life [5]: 17 days
